One substance from article PMC10761937, “Functional engineering of human iPSC‐derived parasympathetic neurons enhances responsiveness to gastrointestinal hormones” (FEBS Open Bio, 2023) can be followed below.

The experiment relates to GLP1R‐neurons. Kind of experiment: Ca^2+ imaging, GLP1R‐neurons (iPSC‐derived). It counts as cell-based, human. As to conditions: 10 nM GLP1 (GLP1 (7–37) in method), day 35, Fluo‐8 AM. Here is the method: Before initiating differentiation, the iPSCs (1–2 × 10^5 cells·cm^−2; Cell lines and cell culture section) were transferred to 6‐well plates (Corning, Inc., Corning, NY, USA) coated with 2‐methacryloyloxyethyl phosphorylcholine (MPC) polymer (Lipidure CM5206E; NOF, Tokyo, Japan). The cells were maintained in mTeSR1 cGMP medium containing 10 μM Y‐27632 (Fujifilm Wako Pure Chemical Industries) for 2 or 3 days to form embryoid body (EBs) in a rotary shaker at 95 r.p.m. (OS‐762RC; Optime, Tokyo, Japan). Subsequently, iPSCs were differentiated into neural crest cells (NCCs), as previously reported. Briefly, NCCs were induced from Ebs using knockout serum replacement (KSR) medium and N2 medium with graded addition of nerve growth factors and signaling factors. KSR medium was composed of DMEM‐F12 (Fujifilm Wako Pure Chemical Industries), 20% KSR (Thermo Fisher Scientific), 1% NEAA, 1% monothioglycerol (Fujifilm Wako Pure Chemical Industries), and 1% P/S. N2 medium consisted of DMEM‐F12, 1% N2 supplement (Fujifilm Wako Pure Chemical Industries), 1% NEAA, and 1% P/S. When EB formation was considered day 0 of induction, the medium was changed at days 2, 5, 7, 9, and 12. […]

As for “GLP1: GLP1 (4280‐v; Peptide Institute, Inc.); GLP1 (7–37) in Ca2+ imaging (HAEGTFTSDVSSYLEGQAAKEFIAWLVKGRG; Glucagon-like peptide 1(7-37); UniProt P01275 98-128, looked up)”, the “Intracellular Ca^2+ concentration of selected GLP1R‐neurons (traces)” value (Fig. S5B) is on record as “increased the intracellular Ca^2+ concentration”. In addition, the “Ratio of change (ΔF stim/F 0) in mean fluorescence intensity before and after ligand addition” value (n = 10, Student's t‐test vs. 0 nM, Fig. 6C) is recorded as “significantly increased”.
